Values quoted from earlier work in patent US20140315870A1, “COMPOSITION COMPRISING A GLUCOCORTICOID AND A THIAZOLIDINEDIONE FOR INDUCING COMPELTE ADIPOGENIC DIFFERENTIATION OF MAMMALIAN STEM CELLS” (UNIVERSIDAD DEL DESARROLLO, priority 2011, published 2014).

Conditions: chronic consumption in humans

CN(CCOc1ccc(CC2SC(=O)NC2=O)cc1)c1ccccn1 (stereo not shown) [rosiglitazone]
increase in the chance for cardiovascular accidents: 50%
